From US12195482B1 (Arcus Biosciences, Inc., priority 2022, dated 2025) come the findings set out here.

Bounds are passed on as bounds.

The target in one assay is T1, p-AXL (Homo sapiens, UniProt P30530).
T1 construct: expressed in transfected cells; host or cells: HEK293T
T1 sequence (P30530 26-894): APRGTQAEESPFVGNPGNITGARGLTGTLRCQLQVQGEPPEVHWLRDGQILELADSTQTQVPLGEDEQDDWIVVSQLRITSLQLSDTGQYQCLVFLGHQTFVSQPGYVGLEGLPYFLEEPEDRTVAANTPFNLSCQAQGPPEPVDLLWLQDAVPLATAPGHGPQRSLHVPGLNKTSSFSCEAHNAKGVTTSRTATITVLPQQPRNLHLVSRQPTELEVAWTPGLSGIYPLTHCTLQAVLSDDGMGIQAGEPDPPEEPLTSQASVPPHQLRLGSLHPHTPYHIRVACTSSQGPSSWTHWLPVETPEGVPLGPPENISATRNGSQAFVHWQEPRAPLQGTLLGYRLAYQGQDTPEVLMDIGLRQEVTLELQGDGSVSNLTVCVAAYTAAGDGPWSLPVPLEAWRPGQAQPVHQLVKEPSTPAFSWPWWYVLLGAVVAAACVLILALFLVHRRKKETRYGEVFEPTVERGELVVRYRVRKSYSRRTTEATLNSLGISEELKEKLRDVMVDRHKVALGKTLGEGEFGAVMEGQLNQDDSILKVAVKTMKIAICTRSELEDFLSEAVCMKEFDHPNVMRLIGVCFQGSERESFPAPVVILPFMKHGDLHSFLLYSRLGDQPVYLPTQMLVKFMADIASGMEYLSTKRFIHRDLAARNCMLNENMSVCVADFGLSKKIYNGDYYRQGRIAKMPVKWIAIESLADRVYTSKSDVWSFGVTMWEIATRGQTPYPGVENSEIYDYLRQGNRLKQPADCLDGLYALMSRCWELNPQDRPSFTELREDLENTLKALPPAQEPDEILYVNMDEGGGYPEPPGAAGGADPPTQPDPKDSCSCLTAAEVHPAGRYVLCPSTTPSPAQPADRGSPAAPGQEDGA
Briefly: Axl phosphorylation inhibition ELISA in HEK293T cells transfected with NanoLuc-tagged AXL. Format: cell-based. To be noted: 1 h compound incubation, media (OptiMEM). The method, boiled down: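 Phospho-AXL detected by luminescence of NanoLuc tag after capture of cell lysate on biotinylated anti-phospho-tyrosine mAb plates (2 h). Lysates came from transiently transfected HEK293T cells treated 1 h at 37° C with serial 2-fold dilutions (22 points). IC50 by standard 4-parameter logistic fitting.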
(An ELISA detects its analyte on a solid surface through an enzyme-linked reagent.)

In a further assay the target is T2, Axl (Homo sapiens, UniProt P30530).
T2 sequence (P30530 26-894): T1 sequence (P30530 26-894)
Briefly: Biochemical potency, HTRF KinEASE-TK kinase assay. Also noted: purchased Invitrogen. The following applies: 5 nM AXL, 700 μM ATP. In a few lines: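 Steps: compound plus kinase, 1 h RT; add ATP (700 µM final) and biotin-TK substrate (800 nM final); run 2 h RT; stop into streptavidin-XL665/anti-phospho cryptate detection mix, 1 h; read 665/620. AXL at 5 nM, TYRO3 and MER at 1 nM.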
(In general: TR-FRET usually uses a lanthanide donor and a delayed reading to cut background.)

For `C[C@@H]1CCCN1[C@@]1(C)CCc2ccc(-c3cnc4[nH]nc(-c5ccc(-c6ncco6)cc5)c4c3)cc2CC1` [Example 90, 2-(4-{5-[(7S)-7-Methyl-7-[(2R)-2-methylpyrrolidin-1-yl]-6,7,8,9-tetrahydro-5H-benzo[7]annulen-2-yl]-2H-pyrazolo[3,4-b]pyridin-3-yl}phenyl)-1,3-oxazole], the IC50 against p-AXL and against Axl was less than 100 nM throughout.
As for `Cc1cncnc1-c1ccc(-c2c[nH]c3ncc(-c4ccc5c(c4)CC[C@@H](N4C6COCC4C6)CC5)cc23)cc1` [Example 47, 6-[(7S)-2-{3-[4-(5-Methylpyrimidin-4-yl)phenyl]-1H-pyrrolo[2,3-b]pyridin-5-yl}-6,7,8,9-tetrahydro-5H-benzo[7]annulen-7-yl]-3-oxa-6-azabicyclo[3.1.1]heptane], the half-inhibitory concentration (IC50) against p-AXL and against Axl was less than 100 nM throughout.
Turning to `N#Cc1cccnc1-c1ccc(-c2c[nH]c3ncc(-c4ccc5c(c4)CC[C@@H](N4C6COCC4C6)CC5)cc23)cc1` [Example 46, 2-(4-{5-[(7S)-7-{3-Oxa-6-azabicyclo[3.1.1]heptan-6-yl}-6,7,8,9-tetrahydro-5H-benzo[7]annulen-2-yl]-1H-pyrrolo[2,3-b]pyridin-3-yl}phenyl)pyridine-3-carbonitrile], the IC50 against p-AXL and at Axl was less than 100 nM in each case.
`Cc1ccnnc1-c1ccc(-c2c[nH]c3ncc(-c4ccc5c(c4)CC[C@@](C)(N4CCC[C@H]4C)CC5)cc23)cc1` [Example 51, 4-methyl-3-(4-{5-[(7S)-7-Methyl-7-[(2R)-2-methylpyrrolidin-1-yl]-6,7,8,9-tetrahydro-5H-benzo[7]annulen-2-yl]-1H-pyrrolo[2,3-b]pyridin-3-yl}phenyl)pyridazine]: the IC50 against p-AXL and at Axl was less than 100 nM throughout.
Regarding `FC(F)(F)c1cccnc1-c1ccc(-c2n[nH]c3ncc(-c4ccc5c(c4)CC[C@@H](N4C6COCC4C6)CC5)cc23)cc1` [Example 88, 6-[(7S)-3-[3-[4-[3-(Trifluoromethyl)pyridin-2-yl]phenyl]-1H-pyrazolo[3,4-b]pyridin-5-yl]-6,7,8,9-tetrahydro-5H-benzo[7]annulen-7-yl]-3-oxa-6-azabicyclo[3.1.1]heptane], the concentration for half-maximal inhibition (IC50) at p-AXL was 100 to 1000 nM; against Axl it was less than 100 nM.
With `Cc1cc(C)c(-c2ccc(-c3n[nH]c4ncc(-c5ccc6c(c5)CC[C@@](C)(N5CCC[C@H]5C)CC6)cc34)cc2)nn1` [Example 78, 4,6-Dimethyl-3-(4-{5-[(7S)-7-methyl-7-[(2R)-2-methylpyrrolidin-1-yl]-6,7,8,9-tetrahydro-5H-benzo[7]annulen-2-yl]-1H-pyrazolo[3,4-b]pyridin-3-yl}phenyl)pyridazine], the IC50 on p-AXL and on Axl was less than 100 nM each time.
Turning to `Cc1ccnnc1-c1ccc(-c2c[nH]c3ncc(-c4ccc5c(c4)CC[C@@H](N4C6COCC4C6)CC5)cc23)cc1` [Example 49, 6-[(7S)-2-{3-[4-(4-Methylpyridazin-3-yl)phenyl]-1H-pyrrolo[2,3-b]pyridin-5-yl}-6,7,8,9-tetrahydro-5H-benzo[7]annulen-7-yl]-3-oxa-6-azabicyclo[3.1.1]heptane], the IC50 against p-AXL and against Axl was less than 100 nM each time.
With `CN(C)C(=O)c1ccccc1-c1ccc(-c2c[nH]c3ncc(-c4ccc5c(c4)CC[C@@H](N4C6COCC4C6)CC5)cc23)cc1` [Example 92, N,N-Dimethyl-4′-{5-[(7S)-7-{3-oxa-6-azabicyclo[3.1.1]heptan-6-yl}-6,7,8,9-tetrahydro-5H-benzo[7]annulen-2-yl]-1H-pyrrolo[2,3-b]pyridin-3-yl}-[1,1′-biphenyl]-2-carboxamide], the 50% inhibitory concentration (IC50) at p-AXL and at Axl was less than 100 nM each time.
Take `COCCOc1cccnc1-c1ccc(-c2c[nH]c3ncc(-c4ccc5c(c4)CC[C@@H](N4C6COCC4C6)CC5)cc23)cc1` [Example 3, 6-[(7S)-2-(3-{4-[3-(2-Methoxyethoxy)pyridin-2-yl]phenyl}-1H-pyrrolo[2,3-b]pyridin-5-yl)-6,7,8,9-tetrahydro-5H-benzo[7]annulen-7-yl]-3-oxa-6-azabicyclo[3.1.1]heptane]: the IC50 against p-AXL and at Axl was less than 100 nM throughout.
On to `C[C@@H]1CCCN1[C@@]1(C)CCc2ccc(-c3cnc4[nH]nc(-c5ccc(-c6nccs6)cc5)c4c3)cc2CC1` [Example 91, 2-(4-{5-[(7S)-7-Methyl-7-[(2R)-2-methylpyrrolidin-1-yl]-6,7,8,9-tetrahydro-5H-benzo[7]annulen-2-yl]-2H-pyrazolo[3,4-b]pyridin-3-yl}phenyl)-1,3-thiazole], for which the concentration for half-maximal inhibition (IC50) against p-AXL was 100 to 1000 nM; against Axl, less than 100 nM.
For the compound `Cc1cnc(-c2ccc(-c3c[nH]c4ncc(-c5ccc6c(c5)CC[C@@H](N5CCCC5)CC6)cc34)cc2)c(C)n1` [Example 59, 3,5-Dimethyl-2-(4-{5-[(7S)-7-(pyrrolidin-1-yl)-6,7,8,9-tetrahydro-5H-benzo[7]annulen-2-yl]-1H-pyrrolo[2,3-b]pyridin-3-yl}phenyl)pyrazine], the IC50 was 100 to 1000 nM against p-AXL and less than 100 nM on Axl.
For the compound `Cc1ccnnc1-c1ccc(-c2n[nH]c3ncc(-c4ccc5c(c4)CC[C@@H](N4C6COCC4C6)CC5)cc23)nc1` [Example 56, 6-[(7S)-2-{3-[5-(4-Methylpyridazin-3-yl)pyridin-2-yl]-1H-pyrazolo[3,4-b]pyridin-5-yl}-6,7,8,9-tetrahydro-5H-benzo[7]annulen-7-yl]-3-oxa-6-azabicyclo[3.1.1]heptane], the IC50 against p-AXL and at Axl was less than 100 nM in each case.
Regarding `c1cc(-c2ccc(-c3c[nH]c4ncc(-c5ccc6c(c5)CC[C@@H](N5C7COCC5C7)CC6)cc34)cc2)ccn1` [Example 41, 6-[(7S)-2-{3-[4-(Pyridin-4-yl)phenyl]-1H-pyrrolo[2,3-b]pyridin-5-yl}-6,7,8,9-tetrahydro-5H-benzo[7]annulen-7-yl]-3-oxa-6-azabicyclo[3.1.1]heptane], the figures for the IC50 on p-AXL and against Axl were 100 to 1000 nM and less than 100 nM, respectively.
As to `FC(F)c1cccnc1-c1ccc(-c2n[nH]c3ncc(-c4ccc5c(c4)CC[C@@H](N4C6COCC4C6)CC5)cc23)cc1` [Example 89, 6-[(7S)-3-[3-[4-[3-(Difluoromethyl)pyridin-2-yl]phenyl]-1H-pyrazolo[3,4-b]pyridin-5-yl]-6,7,8,9-tetrahydro-5H-benzo[7]annulen-7-yl]-3-oxa-6-azabicyclo[3.1.1]heptane], the concentration for half-maximal inhibition (IC50) against p-AXL is 100 to 1000 nM; against Axl, less than 100 nM.
For `Cc1nccnc1-c1ccc(-c2c[nH]c3ncc(-c4ccc5c(c4)CC[C@@H](N4C6COCC4C6)CC5)cc23)nc1` [Example 54, 6-[(7S)-2-{3-[5-(3-Methylpyrazin-2-yl)pyridin-2-yl]-1H-pyrrolo[2,3-b]pyridin-5-yl}-6,7,8,9-tetrahydro-5H-benzo[7]annulen-7-yl]-3-oxa-6-azabicyclo[3.1.1]heptane], the concentration for half-maximal inhibition (IC50) at p-AXL and on Axl was less than 100 nM in each case.
In the case of `c1ccc(-c2ccc(-c3c[nH]c4ncc(-c5ccc6c(c5)CC[C@@H](N5C[C@@H]7C[C@H]5CO7)CC6)cc34)cc2)nc1` [Example 33, (1S,4S)-5-[(7S)-3-[3-(4-Pyridin-2-ylphenyl)-1H-pyrrolo[2,3-b]pyridin-5-yl]-6,7,8,9-tetrahydro-5H-benzo[7]annulen-7-yl]-2-oxa-5-azabicyclo[2.2.1]heptane], the IC50 against p-AXL was 100 to 1000 nM; at Axl, less than 100 nM.
The corresponding values for `Cc1cnc(C)c(-c2ccc(-c3c[nH]c4ncc(-c5ccc6c(c5)CC[C@@H](N5C7COCC5C7)CC6)cc34)cc2)n1` [Example 53, 6-[(7S)-2-{3-[4-(3,6-Dimethylpyrazin-2-yl)phenyl]-1H-pyrrolo[2,3-b]pyridin-5-yl}-6,7,8,9-tetrahydro-5H-benzo[7]annulen-7-yl]-3-oxa-6-azabicyclo[3.1.1]heptane] are less than 100 nM and less than 100 nM.
In the case of `c1cc(-n2cc(-c3c[nH]c4ncc(-c5ccc6c(c5)CC[C@@H](N5C7COCC5C7)CC6)cc34)cn2)ccn1` [Example 45, 6-[(7S)-2-{3-[1-(Pyridin-4-yl)-1H-pyrazol-4-yl]-1H-pyrrolo[2,3-b]pyridin-5-yl}-6,7,8,9-tetrahydro-5H-benzo[7]annulen-7-yl]-3-oxa-6-azabicyclo[3.1.1]heptane], the half-maximal inhibitory concentration (IC50) is 100 to 1000 nM against p-AXL and less than 100 nM against Axl.

What is called IC50 is the midpoint of a concentration-inhibition curve. Low readings indicate inhibition by little substance, high ones a need for much substance.
